Results taken from patent US20180135134A1, “TARGETED SELECTION OF PATIENTS FOR TREATMENT WITH CORTISTATIN DERIVATIVES” (President and Fellows of Harvard College, priority 2015, published 2018).

Assays:
[1] = system: RUNX1 target gene signatures; assay: Gene expression and gene set enrichment analysis (GSEA) in MOLM-14 cells; assay type: cell-based, human; details: 3 h 25 nM CA
Excerpt: Kasumi-1 AML cells contain the RUNX1-RUNX1T1 fusion. A gene set was obtained that measured the genes in Kasumi-1 cells that increase in expression upon knockdown of RUNX1-RUNX1T1 (Ben-Ami, O. et al. Cell Reports 4, 1131-1143 (2013)). Using gene set enrichment analysis (Subramanian, A. et. al. Proc. Natl Acad. Sci. USA 102, 15545-15550 (2005)), this gene set, together with the Broad Molecular Signatures database (C2) was compared to genes differentially expressed in MOLM-14 cells upon treatment with 25 nM cortistatin A for 3 hrs (FIG. 2).
Leukemia cells were plated (12-well) in triplicate at 500,000-800,000 cells per ml and incubated in the presence of vehicle (0.1% DMSO) or CA (25 nM 3 h for K562, MOLM-14 and MV4;11; 10 nM 24 h for MOLM-14; 25 nM 4 h for SET-2, n=3 for each cell line). Cells were then washed twice with cold PBS, and snap frozen. RNA was isolated (RNeasy Plus Microkit, Qiagen or TRIzol, Life Technologies), processed, and, for K562, MOLM-14 and MV4;11, hybridized to the Human U133 Plus 2.0 microarray (Affymetrix). Microarrays were processed with Bioconductor packages affyQCReport for quality control and affy for background correction, summarization, and normalization using rma. Probe sets present in at least 1 sample (based on affy mas5call) and for which the interquartile range was >log2(1.2) were retained for further analysis. The limma Bioconductor package was used for differential expression analysis of CA-treated versus DMSO control samples (Benjamini-Hochberg adjusted P<0.05). SET-2 and HCT 116 gene expression was measured by RNA-seq. SET-2 RNA-seq libraries were prepared and processed using the Ion Torrent workflow. Reads were aligned in two passes, first with rnaStar (v.2.3.0e) then with BWA (v.0.7.5a) for remaining unmapped reads, both using default parameters. Mapped reads were merged and counted using HTSeq (v.0.5.3p3) with -s yes -m intersection-strict. The Bioconductor package DESeq was used for DE analysis (FDR<0.05 and twofold change) and normalization. HCT116 cells were grown to approximately 80% confluence and were treated with either 100 nM CA or DMSO for 3 h (n=3). Cells were then washed twice with cold PBS and scraped into TRIzol reagent (Life Technologies). After collecting the RNA, it was further purified using an RNeasy mini kit (Qiagen) with an on-column DNase I digestion. Libraries for Illumina sequencing were generated via the Illumina TruSEQ stranded mRNA prep kit. Samples were run in a single lane on an Illumina HiSEQ 2000 sequencer with a single read flow cell using 1×50-bp reads and a 6-cycle index read. Reads were mapped to the hgl9 reference genome using Tophat2 v.2.0.6 with custom settings including the setting of—library-type fr—firstrand to appropriately account for the stranded nature of the protocol. HTSeq v.0.6.1 was used to obtain read counts over annotated genes and differentially expressed genes were called by DESeq v.1.10.1 with a padj value of less than 0.01. Counts were normalized for GSEA using the limma voom function. Expression data for the I-BET151 comparison were downloaded from ArrayExpress (https://www.ebi.ac.uk/arrayexpress, accession E-MTAB-774) and processed files used as is. Gene lists were submitted to the DAVID web server (http://david.abcc.ncifcrf.gov) for functional annotation. GSEA version 2.09 was carried out using signal-to-noise on natural values as the metric. Signatures included curated gene sets (C2, v.3) downloaded from the Broad's MSigDB as well as signatures curated from in-house and published data sets.

CDK8/Cyclin C = target: T1, CDK8/Cyclin C (Homo sapiens, UniProt P49336); assay: In vitro radiometric protein kinase assay (PanQinase); assay type: biochemical; details: FIG. 8
T1 construct: purchased ProQinase GmbH
Excerpt: A radiometric protein kinase assay was used (PanQinase activity assay; performed by ProQinase GmbH) as described (Hutterer, C. et al. Antimicrob. Agents Chemother. 59, 2062-2071 (2015)).

CDK8 W105M = target: T2, CDK8 W105M (Homo sapiens, UniProt P49336, W105M); assay: Drug resistant allele growth assay in MOLM-14 cells; assay type: cell-based; details: expression of CDK8 W105M; FIG. 9
T2 construct: host or cells: MOLM-14 cells, lentiviral transduction (pLVX-EF1alpha-IRES vectors)
Description: 5′-Flag-tagged CDK8 and CDK19 were cloned from pBabe.puro.CDK8.flag (Addgene 19758) and F-CDK8L (Addgene 24762) into pLVX-EF1alpha-IRES-mCherry and pLVX-EF1alpha-IRES-ZsGreen (Clontech) and transformed into E. coli (One Shot Stbl3, Invitrogen). Point mutations were introduced by whole-plasmid PCR (QuikChange II XL Site-Directed Mutagenesis Kit, Agilent). pLVX lentiviral vectors were co-transfected with psPASx and pMD2.G (Addgene) in 293T cells. After 48 h, viral supernatants were collected and passed through a 0.45 m filter (Millipore). For transductions, 24-well plates were coated with 500 μl of 20 μg ml RetroNectin (Clontech) at 4° C. overnight, blocked with 2% BSA for 30 min, washed with PBS, and 300-500 μl of viral supernatant was added. The plates were centrifuged (2,000 g, 1.5 h) and then set in an incubator. After 2 h, viral supernatant was removed and 500 μl per well of 200,000 cells per ml was added. After 1-3 days, the cells were expanded and isolated by FACS.

CDK8/19 = details: 1,000 nM cortistatin A; FIG. 7B
Description: Native kinome profiling was performed with MOLM-14 cell lysate according to the KiNativ Method by ActivX Biosciences. For each peptide quantified, the change in mass spectrometry signal for the treated samples relative to the signal for the control samples was expressed as percentage inhibition.

Caki-2 = assay: Soft agar growth assay (Alamar Blue); details: clear cell renal cell carcinoma, Loss of function VHL mutation (VHL negative), 100 nM cortistatin A
Description: (§1) For the 62 cell lines 96 well suspension cell culture plates were prepared. 100 μL of the soft agar bottom layer (0.6% final concentration in complete medium) was poured and left to solidify. 50 μL of the soft agar top layer (0.4% final concentration) containing the corresponding cells and cell number were then added on top, solidified and incubated at 37° C., 10% CO2. After the soft agar had solidified, the test items were added at indicated final concentrations into the inner wells of the plate. Subsequently, the assay was incubated in cell culture incubators for 8 to 14 days. Finally, the assay was developed using Alamar Blue and upon 1-5 h of incubation at 37° C. fluorescence intensity was determined (excitation: 560 nm; emission: 590 nm). As low control, cells were treated with 1E-05M Staurosporine (6fold values). As high control, cells were treated with 0.1% DMSO (solvent control, 6 fold values).
(§2) Raw data were converted into percent soft agar growth relative to high controls (solvent 0.1% DMSO) and low controls (1E-05M Staurosporine), which were set to 100% and 0%, respectively.

A498 = assay: Soft agar growth assay (Alamar Blue); details: clear cell renal cell carcinoma, Loss of function VHL mutation (VHL negative), 100 nM cortistatin A
Description: as §1, §2

SK-N-SH = assay: Soft agar growth assay (Alamar Blue); details: Neuroblastoma, 100 nM cortistatin A
Description: as §1, §2

SK-ES-1 = assay: Soft agar growth assay (Alamar Blue); details: EWS-FLI1, 100 nM cortistatin A
Description: as §1, §2

JeKo-1 = assay: Cellular proliferation assay (CellTiter-Glo); details: Homo sapiens
Description: (§3) All suspension cells were plated (96-well) in triplicate at 5,000-30,000 cells per well for testing (n=3). Viable cell number was estimated after 3, 7 and 10 days by counting viable cells from one vehicle well, generating a cell dilution series, transferring 20 ml per well in duplicate to a 384-well plate, and performing a linear regression to CellTiter-Glo (Promega) response (SPECTRAmax M3, Molecular Devices). Cells from all wells were also fourfold diluted in media and transferred in duplicate for CellTiter-Glo measurement. On days 3 and 7, an equal volume for all wells was split-back with fresh media and compound, such that the resulting cell density for the vehicle well matched the initial seeding density. For days 7 and 10, estimated cell number represents the split-adjusted theoretical cell number. HCT116 were plated (96-well) in triplicate at 250 cells per well. Cells were incubated in the presence of vehicle, 1 μM paclitaxel, or compound. On day 7, CellTiter-Blue (Promega) response was measured and values were normalized to vehicle (100% growth) and paclitaxel (0% growth). For growth assays with inhibitors, n=3 for each concentration with two independent experiments.

REH = assay: Cellular proliferation assay (CellTiter-Glo); details: Homo sapiens
Description: (§4) All suspension cells were plated (96-well) in triplicate at 5,000-30,000 cells per well for testing (n=3). Viable cell number was estimated after 3, 7 and 10 days by counting viable cells from one vehicle well, generating a cell dilution series, transferring 20 ml per well in duplicate to a 384-well plate, and performing a linear regression to CellTiter-Glo (Promega) response (SPECTRAmax M3, Molecular Devices). Cells from all wells were also fourfold diluted in media and transferred in duplicate for CellTiter-Glo measurement. On days 3 and 7, an equal volume for all wells was split-back with fresh media and compound, such that the resulting cell density for the vehicle well matched the initial seeding density. For days 7 and 10, estimated cell number represents the split-adjusted theoretical cell number. […] For growth assays with inhibitors, n=3 for each concentration with two independent experiments.

RS4;11 = assay: Cellular proliferation assay (CellTiter-Glo); details: Homo sapiens
Description: as §3

MOLM-14 = assay: Cellular proliferation assay (CellTiter-Glo); details: Homo sapiens
Description: as §4

OCI-LY1 = assay: Cellular proliferation assay (CellTiter-Glo); details: Homo sapiens
Description: as §4

TF-1 = assay: Cellular proliferation assay (CellTiter-Glo); details: Homo sapiens
Description: as §3

GRANTA 519 = assay: Cellular proliferation assay (CellTiter-Glo); details: Homo sapiens
Description: as §3

NB4 = assay: Cellular proliferation assay (CellTiter-Glo); details: Homo sapiens, NB-4
Description: as §3

[2] = system: megakaryocytic cell lines; assay: Cellular proliferation assay, megakaryocytic cell lines; details: Homo sapiens
Description: as §4

[3] = system: megakaryocytic and erythroleukemia cell lines; assay: Comparison of sensitivity of megakaryocytic and erythroleukemia cell lines; details: K562 and HEL compared to MEG-01 and SET-2 (BCR-Abl or JAK2V617F)

T2 sequence (P49336 whole entry W105M): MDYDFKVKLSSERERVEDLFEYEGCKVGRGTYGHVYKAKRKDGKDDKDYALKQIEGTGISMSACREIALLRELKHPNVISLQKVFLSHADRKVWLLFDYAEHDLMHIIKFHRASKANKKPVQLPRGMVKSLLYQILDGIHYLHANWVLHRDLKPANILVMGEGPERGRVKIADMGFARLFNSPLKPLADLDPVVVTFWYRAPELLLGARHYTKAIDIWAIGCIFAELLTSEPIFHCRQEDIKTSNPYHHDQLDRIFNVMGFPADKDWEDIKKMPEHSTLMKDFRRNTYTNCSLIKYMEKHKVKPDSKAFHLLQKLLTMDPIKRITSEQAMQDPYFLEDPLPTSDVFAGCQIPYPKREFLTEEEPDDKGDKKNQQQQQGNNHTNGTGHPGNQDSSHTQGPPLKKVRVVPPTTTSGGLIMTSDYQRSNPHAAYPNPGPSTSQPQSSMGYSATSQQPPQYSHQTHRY
T2 sequence (P24863 whole entry partner): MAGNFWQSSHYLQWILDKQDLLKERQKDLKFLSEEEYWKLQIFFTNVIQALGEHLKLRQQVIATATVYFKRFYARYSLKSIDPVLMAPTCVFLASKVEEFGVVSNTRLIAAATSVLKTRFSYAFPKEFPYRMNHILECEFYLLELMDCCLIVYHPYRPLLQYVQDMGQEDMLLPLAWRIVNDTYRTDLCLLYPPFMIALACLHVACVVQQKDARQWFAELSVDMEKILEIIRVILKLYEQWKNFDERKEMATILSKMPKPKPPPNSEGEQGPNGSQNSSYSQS
T1 sequence (P49336 whole entry): as the sequence (P49336 whole entry W105M) above, with M105W counted along it
T1 sequence (P24863 whole entry partner): as the sequence (P24863 whole entry partner) above

In the case of `CN(C)[C@H]1C[C@@]23CC[C@@]4(O2)C(=CC[C@]2(C)[C@@H](c5ccc6ccncc6c5)CC[C@H]24)C=C3[C@@H](O)[C@@H]1O` [Cortistatin A, cortistatin A], the NES ([1]; signature: Downregulated by RUNX1-RUNX1T1 in CD34+ cord blood cells) is reported as 2.50, the NES ([1]; signature: Downregulated by RUNX1 knockdown in Kasumi-1 cells) is reported as 2.21 and the NES ([1]; signature: Downregulated by RUNX1 knowndown in Jurkat cells) is reported as 2.00. For the same molecule, the NES ([1]; signature: Upregulated by C/EBPα in Burkitt lymphoma cells) was 2.56, the NES ([1]; signature: Upregulated by C/EBPα in K562 cells) was 2.22 and the NES ([1]; signature: Upregulated by C/EBPα in KCL22 cells) was 2.22. For the same molecule, the NES ([1]; signature: Upregulated by RUNX1-RUNX1T1 knockdown in Kasumi-1 cells) was 2.78, the “inhibition of CDK8/Cyclin C kinase activity” value (CDK8/Cyclin C) was “potently inhibits CDK8/Cyclin C” and the “growth of MOLM-14 cells expressing drug resistant allele” value (CDK8 W105M) was “able to proliferate in the presence of cortistatin A”. The “kinase selectivity (native kinase % inhibition)” value (CDK8/19) was “selectively inhibits CDK8/19”, the “% growth rel. to vehicle” value (Caki-2) was 18% and the “% growth rel. to vehicle” value (A498) was 51%. For the same molecule, the “% growth rel. to vehicle” value (SK-N-SH) was 29%, the “% growth rel. to vehicle” value (SK-ES-1) was 36% and the GI50 (JeKo-1) was under 1 nM. The GI50 (REH) was 1 nM, the GI50 (RS4;11) was 3 nM and the GI50 (MOLM-14; MOLM-14) was 5 nM. The GI50 (MOLM-14; MOLM-14, 240 h) was 5 nM, the GI50 (OCI-LY1) was 37 nM and the GI50 (TF-1) was 350 nM. For the same molecule, the GI50 (GRANTA 519) was 400 nM, the GI50 (NB4) was over 1000 nM and the GI50 [2] was under 10 nM. For the same molecule, the “difference in sensitivity between megakaryocytic and erythroleukemia cell lines with the same mutations” value [3] was “more than 100 fold”.
